Measurements as given in ChEMBL document CHEMBL1145159 (J Med Chem, 2005).
Values joined by “and” are separate entries in the source; they are usually repeats but may differ in a detail not shown here. Equal entries are not always repeated.

Experiments:
[1] = biological target: T1, Neuronal acetylcholine receptor; alpha2/beta4 (Homo sapiens, UniProt P30926+Q15822); test: Inhibitory concentration against Nicotinic acetylcholine receptor alpha2-beta4; Range is 0.3-1.5 nM; format: protein-complex assay
[2] = biological target: T2, Neuronal acetylcholine receptor; alpha4/beta2 (Homo sapiens, UniProt P17787+P43681); test: Inhibitory concentration against Nicotinic acetylcholine receptor alpha4-beta2; Range is 0.3-1.5 nM; format: protein-complex assay
[3] = biological target: T3, Neuronal acetylcholine receptor subunit alpha-7 (Homo sapiens, UniProt P36544); test: Inhibitory concentration against Nicotinic acetylcholine receptor alpha7; Range is 0.3-1.5 nM
[4] = biological target: Neuronal acetylcholine receptor; alpha2/beta2 (Homo sapiens, UniProt P17787+Q15822); test: Inhibitory concentration against Nicotinic acetylcholine receptor alpha2-beta2; Range is 0.3-1.5 nM; format: protein-complex assay
[5] = biological target: T4, Neuronal acetylcholine receptor; alpha4/beta4 (Homo sapiens, UniProt P30926+P43681); test: Inhibitory concentration against Nicotinic acetylcholine receptor alpha4-beta4; Range is 0.3-1.5 nM; format: protein-complex assay
[6] = biological target: T5, Neuronal acetylcholine receptor; alpha3/beta2 (Homo sapiens, UniProt P17787+P32297); test: Inhibitory concentration against Nicotinic acetylcholine receptor alpha3-beta2; Range is 0.3-1.5 nM; format: protein-complex assay
[7] = biological target: T4, Neuronal acetylcholine receptor; alpha4/beta4; test: Maximal response against Nicotinic acetylcholine receptor alpha4-beta4; format: protein-complex assay
[8] = biological target: T5, Neuronal acetylcholine receptor; alpha3/beta2; test: Maximal response against Nicotinic acetylcholine receptor alpha3-beta2; format: protein-complex assay
[9] = biological target: T3, Neuronal acetylcholine receptor subunit alpha-7; test: Effective concentration against Nicotinic acetylcholine receptor alpha 7 expressed in xenopus oocytes; format: cell-based, Xenopus laevis, Oocyte
[10] = Effective concentration against Nicotinic acetylcholine receptor alpha2-beta4 expressed in xenopus oocytes; format: cell-based; details: oocyte
[11] = biological target: T2, Neuronal acetylcholine receptor; alpha4/beta2; test: Maximal response against Nicotinic acetylcholine receptor alpha4-beta2; format: protein-complex assay
[12] = Effective concentration against Nicotinic acetylcholine receptor alpha4-beta2 expressed in xenopus oocytes; format: cell-based; details: oocyte
[13] = Effective concentration against Nicotinic acetylcholine receptor alpha3-beta4 expressed in xenopus oocytes; format: cell-based; details: oocyte
[14] = biological target: Neuronal acetylcholine receptor subunit alpha-7 (Rattus norvegicus) (UniProt Q05941); test: (§1) Maximal response against Nicotinic acetylcholine receptor alpha 7
[15] = biological target: T5, Neuronal acetylcholine receptor; alpha3/beta2; test: Maximal response against Nicotinic acetylcholine receptor alpha3-beta2 in [Ca2+] permeability and [Ca2+] modulation; format: functional
[16] = Effective concentration against Nicotinic acetylcholine receptor alpha4-beta4 expressed in xenopus oocytes; format: cell-based; details: oocyte
[17] = biological target: T6, Neuronal acetylcholine receptor; alpha3/beta4 (Homo sapiens, UniProt P30926+P32297); test: Maximal response against Nicotinic acetylcholine receptor alpha3-beta4 in [Ca2+] permeability and [Ca2+] modulation; format: protein-complex assay
[18] = biological target: T1, Neuronal acetylcholine receptor; alpha2/beta4; test: Maximal response against Nicotinic acetylcholine receptor alpha2-beta4; format: protein-complex assay
[19] = biological target: T5, Neuronal acetylcholine receptor; alpha3/beta2; test: Effective concentration against Nicotinic acetylcholine receptor alpha3-beta2 expressed in xenopus oocytes; format: cell-based, Oocyte
[20] = biological target: T6, Neuronal acetylcholine receptor; alpha3/beta4; test: Maximal response against Nicotinic acetylcholine receptor alpha3-beta4; format: protein-complex assay
[21] = biological target: T6, Neuronal acetylcholine receptor; alpha3/beta4; test: Maximal response against Nicotinic acetylcholine receptor alpha3-beta4 expressed in HEK293 cells; format: cell-based
[22] = biological target: Neuronal acetylcholine receptor subunit alpha-3 (Homo sapiens) (UniProt P32297); test: Maximal response against [Ca2+] permeability and [Ca2+] modulation of alpha-3 nicotinic receptor
[23] = biological target: T3, Neuronal acetylcholine receptor subunit alpha-7; test: as §1
[24] = biological target: T5, Neuronal acetylcholine receptor; alpha3/beta2; test: Maximal response against Nicotinic acetylcholine receptor alpha3-beta2 expressed in HEK293 cells; format: cell-based
[25] = biological target: T2, Neuronal acetylcholine receptor; alpha4/beta2; test: Maximal response against Nicotinic acetylcholine receptor alpha4-beta2 expressed in HEK293 cells; format: cell-based
[26] = biological target: Neuronal acetylcholine receptor; alpha4/beta4 (Rattus norvegicus) (UniProt P09483+P12392); test: Maximal response against Nicotinic acetylcholine receptor alpha4-beta4 in rat mid brain slices
[27] = biological target: T4, Neuronal acetylcholine receptor; alpha4/beta4; test: Effective concentration against Nicotinic acetylcholine receptor alpha4-beta4; format: protein-complex assay
[28] = biological target: Neuronal acetylcholine receptor; alpha2/beta4 (Rattus norvegicus) (UniProt P12389+P12392); test: Maximal response against Nicotinic acetylcholine receptor alpha2-beta4 in rat mid brain slices
[29] = biological target: Neuronal acetylcholine receptor; alpha3/beta4 (Rattus norvegicus) (UniProt P04757+P12392); test: Maximal response against Nicotinic acetylcholine receptor alpha3-beta4 in rat mid brain slices
[30] = biological target: T3, Neuronal acetylcholine receptor subunit alpha-7; test: Effective concentration against Nicotinic acetylcholine receptor alpha 7
[31] = biological target: Neuronal acetylcholine receptor; alpha4/beta2 (Rattus norvegicus) (UniProt P09483+P12390); test: Maximal response against Nicotinic acetylcholine receptor alpha4-beta2 in rat mid brain slices
[32] = biological target: Neuronal acetylcholine receptor; alpha3/beta2 (Rattus norvegicus, UniProt P04757+P12390); test: Effective concentration against Nicotinic acetylcholine receptor alpha3-beta2 in rat mid brain slices
[33] = biological target: T6, Neuronal acetylcholine receptor; alpha3/beta4; test: Effective concentration against Nicotinic acetylcholine receptor alpha3-beta4; format: protein-complex assay
[34] = biological target: Neuronal acetylcholine receptor subunit alpha-7 (Rattus norvegicus, UniProt Q05941); test: Effective concentration against Nicotinic acetylcholine receptor alpha 7 in rat mid brain slices
[35] = biological target: T3, Neuronal acetylcholine receptor subunit alpha-7; test: Inhibitory concentration against Nicotinic acetylcholine receptor alpha7; Range is 0.5-8 nM
[36] = Inhibitory concentration against Nicotinic acetylcholine receptor alpha-6-alpha-4-beta-4; Range is 0.7-1 nM
[37] = biological target: T5, Neuronal acetylcholine receptor; alpha3/beta2; test: Inhibitory concentration against Nicotinic acetylcholine receptor alpha3-beta2; Range is 0.5-8 nM; format: protein-complex assay
[38] = biological target: T2, Neuronal acetylcholine receptor; alpha4/beta2; test: Inhibitory concentration against Nicotinic acetylcholine receptor alpha4-beta2; Range is 0.5-8 nM; format: protein-complex assay
[39] = Inhibitory concentration against Nicotinic acetylcholine receptor alpha-6-alpha-3-beta-2; Range is 0.5-8 nM; set-up: species or system Homo sapiens
[40] = biological target: T2, Neuronal acetylcholine receptor; alpha4/beta2; test: Effective concentration against Nicotinic acetylcholine receptor alpha4-beta2; format: protein-complex assay
[41] = biological target: T1, Neuronal acetylcholine receptor; alpha2/beta4; test: Effective concentration against Nicotinic acetylcholine receptor alpha2-beta4; format: protein-complex assay
[42] = biological target: T5, Neuronal acetylcholine receptor; alpha3/beta2; test: Effective concentration against Nicotinic acetylcholine receptor alpha3-beta2; format: protein-complex assay
[43] = biological target: T6, Neuronal acetylcholine receptor; alpha3/beta4; test: Inhibitory concentration against Nicotinic acetylcholine receptor alpha3-beta4; format: protein-complex assay
[44] = biological target: T5, Neuronal acetylcholine receptor; alpha3/beta2; test: Inhibitory concentration against Nicotinic acetylcholine receptor alpha3-beta2 expressed in xenopus oocytes; format: cell-based, Oocyte
[45] = biological target: T1, Neuronal acetylcholine receptor; alpha2/beta4; test: Inhibitory concentration against Nicotinic acetylcholine receptor alpha2-beta4; format: protein-complex assay
[46] = biological target: T2, Neuronal acetylcholine receptor; alpha4/beta2; test: Inhibitory concentration against Nicotinic acetylcholine receptor alpha4-beta2; format: protein-complex assay
[47] = biological target: T3, Neuronal acetylcholine receptor subunit alpha-7; test: Inhibitory concentration against Nicotinic acetylcholine receptor alpha 7
[48] = biological target: T4, Neuronal acetylcholine receptor; alpha4/beta4; test: Ki or IC50 concentration against Nicotinic acetylcholine receptor alpha4-beta4 expressed in xenopus oocytes; format: cell-based; details: Oocyte
[49] = Inhibitory concentration against Nicotinic acetylcholine receptor alpha3-beta4 expressed in xenopus oocytes; format: cell-based; details: oocyte
[50] = biological target: T5, Neuronal acetylcholine receptor; alpha3/beta2; test: Inhibitory concentration against Nicotinic acetylcholine receptor alpha3-beta2; format: protein-complex assay
[51] = Inhibitory concentration against Nicotinic acetylcholine receptor alpha2-beta4 expressed in xenopus oocytes; format: cell-based; details: oocyte
[52] = biological target: T2, Neuronal acetylcholine receptor; alpha4/beta2; test: Ki or IC50 concentration against Nicotinic acetylcholine receptor alpha4-beta2 expressed in xenopus oocytes; format: cell-based; details: Oocyte
[53] = biological target: T3, Neuronal acetylcholine receptor subunit alpha-7; test: Inhibitory concentration against Nicotinic acetylcholine receptor alpha-7 expressed in xenopus oocytes; format: cell-based; details: xenopus oocyte

T3 sequence (P36544 whole entry): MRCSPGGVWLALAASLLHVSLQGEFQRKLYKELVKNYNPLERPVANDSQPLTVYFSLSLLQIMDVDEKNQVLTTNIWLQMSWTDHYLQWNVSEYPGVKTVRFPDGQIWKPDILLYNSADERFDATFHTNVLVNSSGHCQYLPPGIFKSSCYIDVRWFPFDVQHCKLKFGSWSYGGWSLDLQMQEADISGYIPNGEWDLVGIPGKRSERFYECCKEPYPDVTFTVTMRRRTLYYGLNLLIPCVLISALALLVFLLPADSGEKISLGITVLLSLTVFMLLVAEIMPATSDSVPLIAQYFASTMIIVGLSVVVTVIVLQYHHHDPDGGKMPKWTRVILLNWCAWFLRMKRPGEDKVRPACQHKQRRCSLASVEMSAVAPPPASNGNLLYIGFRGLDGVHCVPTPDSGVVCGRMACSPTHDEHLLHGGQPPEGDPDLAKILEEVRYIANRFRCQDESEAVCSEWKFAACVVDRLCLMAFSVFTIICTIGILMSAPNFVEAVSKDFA
T2 sequence (P17787 whole entry): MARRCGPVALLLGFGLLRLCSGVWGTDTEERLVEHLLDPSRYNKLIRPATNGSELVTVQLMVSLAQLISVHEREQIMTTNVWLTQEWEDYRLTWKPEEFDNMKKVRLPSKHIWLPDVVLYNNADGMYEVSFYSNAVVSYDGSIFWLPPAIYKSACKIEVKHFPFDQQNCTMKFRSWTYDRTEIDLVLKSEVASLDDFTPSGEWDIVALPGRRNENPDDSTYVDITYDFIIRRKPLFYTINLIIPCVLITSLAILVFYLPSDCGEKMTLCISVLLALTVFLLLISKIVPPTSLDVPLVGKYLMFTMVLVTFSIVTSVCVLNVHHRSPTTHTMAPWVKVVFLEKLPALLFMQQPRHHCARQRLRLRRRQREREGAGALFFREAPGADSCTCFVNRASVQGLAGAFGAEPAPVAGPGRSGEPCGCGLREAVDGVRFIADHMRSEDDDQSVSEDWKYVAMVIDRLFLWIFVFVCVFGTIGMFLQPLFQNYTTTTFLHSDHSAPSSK
T2 sequence (P43681 whole entry): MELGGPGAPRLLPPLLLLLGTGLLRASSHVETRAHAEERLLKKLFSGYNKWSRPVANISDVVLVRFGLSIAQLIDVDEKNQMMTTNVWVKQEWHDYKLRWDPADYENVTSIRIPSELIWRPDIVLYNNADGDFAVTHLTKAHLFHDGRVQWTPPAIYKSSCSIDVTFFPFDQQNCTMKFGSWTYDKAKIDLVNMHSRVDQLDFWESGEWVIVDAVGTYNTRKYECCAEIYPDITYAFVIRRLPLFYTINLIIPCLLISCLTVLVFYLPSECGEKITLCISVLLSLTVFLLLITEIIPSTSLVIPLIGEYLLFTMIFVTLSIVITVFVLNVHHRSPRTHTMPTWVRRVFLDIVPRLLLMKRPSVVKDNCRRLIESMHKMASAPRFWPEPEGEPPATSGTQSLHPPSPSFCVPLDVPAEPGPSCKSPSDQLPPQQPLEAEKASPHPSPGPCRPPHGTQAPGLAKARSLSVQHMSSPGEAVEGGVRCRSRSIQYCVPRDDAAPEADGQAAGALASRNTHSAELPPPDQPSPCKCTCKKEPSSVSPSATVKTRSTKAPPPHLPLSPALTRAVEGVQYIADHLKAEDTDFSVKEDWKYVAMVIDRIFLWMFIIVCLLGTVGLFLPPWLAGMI
T5 sequence (P17787 whole entry): as the sequence (P17787 whole entry) above
T5 sequence (P32297 whole entry): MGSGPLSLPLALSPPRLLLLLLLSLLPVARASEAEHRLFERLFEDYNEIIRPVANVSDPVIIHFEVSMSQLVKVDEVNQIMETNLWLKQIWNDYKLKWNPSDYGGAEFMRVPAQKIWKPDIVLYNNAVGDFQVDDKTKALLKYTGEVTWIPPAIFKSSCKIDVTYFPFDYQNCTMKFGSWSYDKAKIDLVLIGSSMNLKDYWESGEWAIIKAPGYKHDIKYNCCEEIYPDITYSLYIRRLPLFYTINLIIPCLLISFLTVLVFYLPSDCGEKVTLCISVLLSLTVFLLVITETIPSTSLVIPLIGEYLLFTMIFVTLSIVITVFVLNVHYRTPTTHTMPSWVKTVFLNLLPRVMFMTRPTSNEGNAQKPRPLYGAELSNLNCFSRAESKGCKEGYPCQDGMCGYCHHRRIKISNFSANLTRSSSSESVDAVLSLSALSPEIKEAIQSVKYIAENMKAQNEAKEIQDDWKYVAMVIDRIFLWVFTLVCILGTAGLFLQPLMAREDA
T1 sequence (P30926 whole entry): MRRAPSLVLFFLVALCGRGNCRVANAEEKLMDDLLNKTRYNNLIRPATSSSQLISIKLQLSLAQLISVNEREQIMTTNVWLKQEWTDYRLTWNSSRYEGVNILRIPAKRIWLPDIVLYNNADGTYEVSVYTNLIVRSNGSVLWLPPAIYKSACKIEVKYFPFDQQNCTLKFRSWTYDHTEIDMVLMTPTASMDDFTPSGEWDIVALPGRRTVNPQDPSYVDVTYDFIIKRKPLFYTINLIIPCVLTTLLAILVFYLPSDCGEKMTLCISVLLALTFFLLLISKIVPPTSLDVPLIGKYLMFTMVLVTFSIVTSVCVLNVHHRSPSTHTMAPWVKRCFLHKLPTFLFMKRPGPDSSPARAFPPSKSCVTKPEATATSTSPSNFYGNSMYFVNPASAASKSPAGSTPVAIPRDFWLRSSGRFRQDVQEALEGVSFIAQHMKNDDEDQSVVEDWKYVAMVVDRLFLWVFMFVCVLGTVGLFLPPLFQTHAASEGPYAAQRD
T1 sequence (Q15822 whole entry): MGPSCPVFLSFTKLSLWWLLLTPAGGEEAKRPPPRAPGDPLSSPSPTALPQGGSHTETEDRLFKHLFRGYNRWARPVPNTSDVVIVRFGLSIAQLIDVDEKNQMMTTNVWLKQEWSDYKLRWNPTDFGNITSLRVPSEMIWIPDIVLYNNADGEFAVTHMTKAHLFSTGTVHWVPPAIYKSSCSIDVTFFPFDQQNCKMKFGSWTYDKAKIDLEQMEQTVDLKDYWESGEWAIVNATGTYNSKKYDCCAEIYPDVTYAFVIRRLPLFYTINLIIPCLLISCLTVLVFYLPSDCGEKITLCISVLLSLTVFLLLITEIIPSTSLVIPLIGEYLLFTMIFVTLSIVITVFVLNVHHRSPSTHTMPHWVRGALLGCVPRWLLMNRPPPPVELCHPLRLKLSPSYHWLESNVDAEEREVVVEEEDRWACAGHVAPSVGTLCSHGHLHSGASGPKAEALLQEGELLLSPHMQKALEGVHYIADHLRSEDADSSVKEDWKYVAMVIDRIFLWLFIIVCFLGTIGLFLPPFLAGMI
T6 sequence (P30926 whole entry): as the sequence (P30926 whole entry) above
T6 sequence (P32297 whole entry): as the sequence (P32297 whole entry) above
T4 sequence (P30926 whole entry): as the sequence (P30926 whole entry) above
T4 sequence (P43681 whole entry): as the sequence (P43681 whole entry) above
Neuronal acetylcholine receptor subunit alpha-7 (Rattus norvegicus), sequence (Q05941 whole entry): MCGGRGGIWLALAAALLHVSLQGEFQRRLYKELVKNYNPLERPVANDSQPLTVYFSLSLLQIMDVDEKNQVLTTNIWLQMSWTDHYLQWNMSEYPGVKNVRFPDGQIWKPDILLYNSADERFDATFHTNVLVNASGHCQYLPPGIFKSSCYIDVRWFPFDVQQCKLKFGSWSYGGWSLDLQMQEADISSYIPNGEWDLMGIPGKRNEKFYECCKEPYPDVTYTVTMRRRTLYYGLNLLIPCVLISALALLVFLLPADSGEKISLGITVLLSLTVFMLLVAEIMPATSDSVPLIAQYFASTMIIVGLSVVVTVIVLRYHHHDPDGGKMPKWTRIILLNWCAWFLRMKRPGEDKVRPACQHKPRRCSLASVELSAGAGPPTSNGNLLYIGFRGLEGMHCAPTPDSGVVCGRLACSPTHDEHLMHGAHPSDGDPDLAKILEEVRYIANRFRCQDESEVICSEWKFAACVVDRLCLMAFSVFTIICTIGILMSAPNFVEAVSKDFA
Neuronal acetylcholine receptor; alpha3/beta2 (Rattus norvegicus, UniProt P04757+P12390), sequence (P04757 whole entry): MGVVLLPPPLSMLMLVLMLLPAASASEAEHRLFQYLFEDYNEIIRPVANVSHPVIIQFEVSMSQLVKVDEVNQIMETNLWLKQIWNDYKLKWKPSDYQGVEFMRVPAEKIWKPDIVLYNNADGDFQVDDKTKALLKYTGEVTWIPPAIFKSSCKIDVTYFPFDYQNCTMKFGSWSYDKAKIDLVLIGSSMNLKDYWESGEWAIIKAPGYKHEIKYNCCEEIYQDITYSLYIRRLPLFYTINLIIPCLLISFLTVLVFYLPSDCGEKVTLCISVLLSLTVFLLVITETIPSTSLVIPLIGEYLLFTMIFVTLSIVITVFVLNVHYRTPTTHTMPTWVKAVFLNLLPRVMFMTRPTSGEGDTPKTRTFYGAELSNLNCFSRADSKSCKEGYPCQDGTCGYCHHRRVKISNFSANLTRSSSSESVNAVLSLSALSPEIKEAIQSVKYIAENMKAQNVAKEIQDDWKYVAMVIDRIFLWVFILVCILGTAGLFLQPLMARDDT
Neuronal acetylcholine receptor; alpha3/beta2 (Rattus norvegicus, UniProt P04757+P12390), sequence (P12390 whole entry): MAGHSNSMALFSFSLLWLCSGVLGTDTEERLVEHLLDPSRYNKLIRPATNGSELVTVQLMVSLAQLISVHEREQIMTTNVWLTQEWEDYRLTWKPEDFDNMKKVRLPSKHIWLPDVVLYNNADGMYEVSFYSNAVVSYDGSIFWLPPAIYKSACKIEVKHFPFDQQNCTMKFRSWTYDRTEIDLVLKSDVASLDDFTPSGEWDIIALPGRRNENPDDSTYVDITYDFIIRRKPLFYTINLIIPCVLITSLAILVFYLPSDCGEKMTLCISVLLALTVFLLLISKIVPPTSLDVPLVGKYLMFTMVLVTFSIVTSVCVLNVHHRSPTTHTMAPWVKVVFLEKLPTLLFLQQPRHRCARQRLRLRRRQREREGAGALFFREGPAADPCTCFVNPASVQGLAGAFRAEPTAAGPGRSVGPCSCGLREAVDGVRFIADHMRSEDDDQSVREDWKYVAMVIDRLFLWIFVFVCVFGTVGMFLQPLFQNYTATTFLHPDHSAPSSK
Neuronal acetylcholine receptor; alpha2/beta2, sequence (P17787 whole entry): as the sequence (P17787 whole entry) above
Neuronal acetylcholine receptor; alpha2/beta2, sequence (Q15822 whole entry): as the sequence (Q15822 whole entry) above

Compound: C[C@H](NC(=O)[C@H](Cc1ccccc1)NC(=O)[C@H](CS)NC(=O)[C@@H]1CCCN1C(=O)[C@@H]1CCCN1C(=O)[C@H](Cc1ccc(O)cc1)NC(=O)[C@H](CO)NC(=O)[C@H](CS)NC(=O)[C@H](CS)NC(=O)CN)C(=O)N[C@H](C(=O)N[C@@H](CC(N)=O)C(=O)N1CCC[C@H]1C(=O)N[C@@H](CC(=O)O)C(=O)N[C@H](C=O)CS)[C@@H](C)O
- IC50 [1]: 0.00075 µM
- IC50 [2]: 0.00075 µM
- IC50 [3]: 0.00075 µM
- IC50 [4]: 0.00075 µM
- IC50 [5]: 0.00075 µM
- IC50 [6]: 0.00075 µM

Compound: C[N+]1(C)CCN(c2ccccc2)CC1 [DIMETHYLPHENYLPIPERAZINIUM]
- Rmax [7]: 19%
- Rmax [8]: 124%
- EC50 [9]: 31 µM
- EC50 [10]: 23 µM
- Rmax [11]: 90%
- EC50 [12]: 18 µM
- EC50 [13]: 19 µM
- Rmax [14]: 54%
- Rmax [15]: 100%
- EC50 [16]: 46 µM
- Rmax [17]: 107%
- Rmax [18]: 58%
- EC50 [19]: 56 µM
- Rmax [20]: 101%

Compound: CC(=O)OCC[N+](C)(C)C [ACETYLCHOLINE]
- Rmax [21]: 100%
- EC50 [10]: 83 µM
- Rmax [22]: 100%
- EC50 [12]: 68 µM
- EC50 [13]: 203 µM
- Rmax [23]: 97%
- EC50 [16]: 20 µM
- Rmax [24]: 150%
- Rmax [25]: 172%

Compound: CN[C@@H](C)C/C=C/c1cncc(OC(C)C)c1 [ISPRONICLINE]
- Rmax [26]: 42%
- EC50 [27]: > 10 µM
- Rmax [11]: 60%
- Rmax [28]: 56%
- Rmax [29]: 24%
- EC50 [30]: > 10 µM
- Rmax [31]: 33%
- EC50 [32]: > 100 µM
- EC50 [33]: > 10 µM
- EC50 [34]: > 100 µM

Compound: CC(C)C[C@H](NC(=O)[C@H](CC(N)=O)NC(=O)[C@H](CO)NC(=O)[C@H](Cc1c[nH]cn1)NC(=O)[C@H](CCC(=O)O)NC(=O)[C@H](CC(C)C)NC(=O)[C@H](Cc1c[nH]cn1)NC(=O)[C@H](CS)NC(=O)[C@@H](NC(=O)[C@@H]1CCCN1C(=O)[C@H](CC(N)=O)NC(=O)[C@H](CO)NC(=O)[C@H](CS)NC(=O)[C@H](CS)NC(=O)CN)C(C)C)C(=O)N[C@@H](CS)C(N)=O
- IC50 [35]: 0.008 µM
- IC50 [36]: 0.008 µM
- IC50 [37]: 0.008 µM
- IC50 [38]: 0.008 µM
- IC50 [39]: 0.008 µM

Compound: c1ccc(-c2cnc3c(c2)CC2(CN4CCC2CC4)O3)cc1 (stereo unspecified)
- EC50 [27]: > 100 µM
- Rmax [14]: 85%
- EC50 [40]: > 100 µM
- EC50 [41]: > 100 µM
- EC50 [33]: > 100 µM
- EC50 [42]: > 100 µM

Compound: COc1cc2c3cc1Oc1cccc(c1O)C[C@@H]1c4c(cc(OC)c(O)c4Oc4ccc(cc4)CC3N(C)CC2)CC[N+]1(C)C (stereo partly specified)
- IC50 [43]: 4.1 µM and 0.73 µM
- IC50 [44]: 2.4 µM
- IC50 [45]: 2.3 µM and 4 µM
- Concentration [46]: 7.6 µM
- IC50 [47]: 14.7 µM
- Concentration [48]: 0.21 µM
- IC50 [49]: 2.2 µM
- IC50 [50]: 0.23 µM
- IC50 [51]: 4.2 µM
- Concentration [52]: 3.2 µM
- Concentration [53]: 3.1 µM
